The values that follow come from US8288383B2, “3-methyl-2- ( (2S) -2- (4- (3-methyl-L, 2, 4-oxadiazol-5-YL) phenyl) morpholino) -6- (pyrim-idin-4-yl) pyrimidin-4 (3H) -one as tau protein kinase inhibitor” (Sanofi, priority 2007, dated 2012).

One may read the IC50 as the concentration needed to halve the response being measured. In general, melting point refers to the temperature, or range, at which the solid turns liquid.

One series addresses CYP2D6 (Homo sapiens, UniProt P10635). In words: Inhibitory activity on CYP2D6 (human recombinant CYPs). In kind it is in vitro ADME. As to conditions: human recombinant CYP2D6, substrate ethylene glycol ester of luciferin-6'-methyl ether, 37° C., read-out: CYP 2D6 inhibition, IC50 value. As to the method: The purpose of this pharmacokinetic study was to investigate the inhibitory effects of test compounds on the specific metabolic activity of human CYP isozymes using human recombinant CYPs in vitro. […] The specific substrate and positive control is ethylene glycol ester of luciferin-6′-methyl ether and quinidine, respectively. The substrate for the CYP isozyme was incubated with human recombinant CYPs in the presence or absence of the test compounds and the metabolic activity of the CYP isozyme was determined. The reaction mixture was preincubated at 37° C. without NADPH generating system. The reaction was started by the addition of NADPH generating system, and then terminated by the addition of acetonitrile. The activities of the human CYP isozymes were measured by fluorescence signal (CYP2D6) of reaction mixture. IC50 value for each compound was calculated by setting the data of reaction mixture without compound as 100% activity.

A further series has as its system tau phosphorylation. As to the kind of experiment: Inhibitory activity on tau phosphorylation in vivo (pS396 Western blot of mouse cortex). To be noted: 10 mg/kg p.o., male CD-1 mice, cortex removed after 1 h, pS396 antibody; ** = statistically significant. As to the method: Test compound was administrated to male CD-1 mice of 5-6 weeks weighing 25-35 g (Charles River Japan, inc.) at 10 mg/kg p.o. (0.5% polyethylen glycol sorbitan monolaurate 80 (Tween80)/water suspension) and after 1 h, mice were decapitated and cortex was promptly removed, followed by being frozen in liquid N2. […] Protein concentrations were determined using DC protein assay kit (BIO-RAD). Supernatants were diluted with sample buffer (62.5 mM Tris-HCl, 25% glycerol, 2% SDS, 0.01% Bromophenol Blue, pH6.8) to adjust the protein concentrations around […] and then boiled for […]. Samples (10 μg) were separated on 10% sodium dodecyl sulfate-polyacrylamide electrophoresis (SDS-PAGE) mini slab gels and transferred onto polyvinylidene difluoride (PVDF) membranes. Membranes were incubated with phosphate buffered saline (PBS) containing 5% non-fat milk for 1h at room temperature and then probed with pS396 anti-body (BIOSOURCE) over night at 4° C. Anti-rabbit IgG horseradish peroxidase (HRP) conjugated anti-body (Promega) was used as secondary anti-body. Membranes were visualized by Enhanced ChemiLuminescence (ECL) kit (Amerasham Bioscience) and detected by LAS1000 (Fuji Photo Film).

[1] abbreviates: probe ethylene glycol ester of luciferin-6'-methyl ether.

Each structure is given as a SMILES string. Read-outs that look alike come from different tables or passages of the source. Where only a bound is given, the exact number is not on record here.

Chain of CYP2D6 (P10635 whole entry): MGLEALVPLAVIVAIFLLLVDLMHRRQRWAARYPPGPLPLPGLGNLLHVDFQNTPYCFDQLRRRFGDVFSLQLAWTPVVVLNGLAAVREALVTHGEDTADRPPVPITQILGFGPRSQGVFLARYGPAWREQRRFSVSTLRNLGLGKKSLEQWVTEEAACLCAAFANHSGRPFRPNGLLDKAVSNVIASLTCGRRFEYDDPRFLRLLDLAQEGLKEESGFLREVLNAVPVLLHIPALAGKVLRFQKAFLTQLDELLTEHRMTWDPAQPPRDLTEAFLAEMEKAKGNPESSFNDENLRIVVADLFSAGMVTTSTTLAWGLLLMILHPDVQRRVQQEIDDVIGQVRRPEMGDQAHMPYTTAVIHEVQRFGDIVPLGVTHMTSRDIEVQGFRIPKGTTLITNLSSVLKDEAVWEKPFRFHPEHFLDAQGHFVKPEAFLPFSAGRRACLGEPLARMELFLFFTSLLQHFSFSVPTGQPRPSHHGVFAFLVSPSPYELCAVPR

Consider `Cc1noc(-c2ccc([C@H]3CN(c4nc(-c5ccncn5)cc(=O)n4C)CCO3)cc2)n1` [Compound of the present invention, 3-Methyl-2-((2S)-2-(4-(3-methyl-1,2,4-oxadiazol-5-yl)phenyl)morpholino)-6-(pyrimidin-4-yl)pyrimidin-4(3H)-one], for which the melting point is 219 °C (dec.). In addition, at CYP2D6, the IC50 was over 50 µM. Also, the “in vivo % phosphorylation against vehicle” value in the series on tau phosphorylation is 69.86** %.

For the molecule `Cn1c(N2CCOC(c3nc(-c4ccccc4)no3)C2)nc(-c2ccncn2)cc1=O` (centres unmarked) [Compound 1, 1-Methyl-2-[2-(3-phenyl-[1,2,4]oxadiazol-5-yl)-morpholin-4-yl]-1H-[4,4′]bipyrimidinyl-6-one], the IC50 at CYP2D6 (setting [1]) was over 50 µM. Moreover, the “in vivo % phosphorylation against vehicle” value in the series on tau phosphorylation came out at 92.12%.

For `Cn1ccnc1-c1ccc(C2CN(c3nc(-c4ccncn4)cc(=O)n3C)CCO2)cc1` (centres unmarked) [Compound 4, 1-Methyl-2-{2-[4-(1-methyl-1H-imidazol-2-yl)-phenyl]-morpholin-4-yl}-1H-[4,4′]bipyrimidinyl-6-one], the melting point was 179.8 °C (dec.). In addition, the IC50 on CYP2D6 (setting [1]) is over 50 µM.

Take `Cn1c(N2CCOC(c3noc(-c4ccccc4)n3)C2)nc(-c2ccncn2)cc1=O` (centres unmarked) [Compound 2, 1-Methyl-2-[2-(5-phenyl-[1,2,4]oxadiazol-3-yl)-morpholin-4-yl]-1H-[4,4′]bipyrimidinyl-6-one]: on CYP2D6 (setting [1]), the half-maximal inhibitory concentration (IC50) was over 25 µM.
